Assay results published in ChEMBL document CHEMBL4000148, “Design of novel dispirooxindolopyrrolidine and dispirooxindolopyrrolothiazole derivatives as potential antitubercular agents” (Bioorg Med Chem Lett, 2015).
≈ marks a conversion by molar mass, not a printed value.

Legend:
[1] = system: Mycobacterium tuberculosis; test: Antitubercular activity against Mycobacterium tuberculosis H37Rv ATCC 27294 after 28 days by agar dilution method; type: functional; conditions: H37Rv ATCC 27294, 672 h
[2] = Cytotoxicity against mouse RAW264.7 cells assessed as inhibition of cell viability at 50 uM after 72 hrs by MTT assay relative to control; type: cell-based; conditions: read-out: INH
[3] = system: Mycobacterium tuberculosis; test: Potency index, ratio of ciprofloxacin MIC to compound MIC for Mycobacterium tuberculosis H37Rv ATCC 27294; type: functional
[4] = system: Mycobacterium tuberculosis; test: Potency index, ratio of pyrazinamide MIC to compound MIC for Mycobacterium tuberculosis H37Rv ATCC 27294; type: functional

Row | SMILES | MIC [1] [µg/mL] | cytotoxicity at 72 h, 50 µM [2] [%] | Ratio [3] | Ratio [4]
1 | O=C1Oc2ccccc2[C@@]12[C@H](c1ccc(Br)cc1)[C@H]1CSCN1[C@]21C(=O)Nc2ccc([N+](=O)[O-])cc21 | 12.5 (≈ 22.1 µM) | – | – | –
2 | NNC(=O)c1ccncc1 [ISONIAZID] | 0.05 (≈ 0.365 µM) | – | – | –
3 | O=C1Oc2ccccc2[C@@]12[C@H](c1ccccc1)[C@H]1CSCN1[C@]21C(=O)Nc2ccccc21 | 25 (≈ 56.8 µM) | – | – | –
4 | O=C1Oc2ccccc2[C@@]12[C@H](c1ccc([N+](=O)[O-])cc1)[C@H]1CSCN1[C@]21C(=O)Nc2ccc([N+](=O)[O-])cc21 | 50 (≈ 94.2 µM) | – | – | –
5 | Cc1ccc([C@@H]2[C@H]3CSCN3[C@]3(C(=O)Nc4ccccc43)[C@@]23C(=O)Oc2ccccc23)cc1 | 12.5 (≈ 27.5 µM) | – | – | –
6 | O=C1Oc2ccccc2[C@@]12[C@H](c1ccccc1)[C@H]1CSCN1[C@]21C(=O)Nc2ccc(Br)cc21 | 25 (≈ 48.1 µM) | – | – | –
7 | O=C1Oc2ccccc2[C@@]12[C@H](c1ccc([N+](=O)[O-])cc1)[C@H]1CSCN1[C@]21C(=O)Nc2ccc(Br)cc21 | 3.12 (≈ 5.54 µM) | 43.1 | – | –
8 | CO[C@H]1/C=C/O[C@@]2(C)Oc3c(C)c(O)c4c(O)c(c(/C=N/N5CCN(C)CC5)c(O)c4c3C2=O)NC(=O)/C(C)=C\C=C\[C@H](C)[C@H](O)[C@@H](C)[C@@H](O)[C@@H](C)[C@H](OC(C)=O)[C@@H]1C [RIFAMPIN] | 0.1 (≈ 0.122 µM) | – | – | –
9 | O=C1Oc2ccccc2[C@@]12[C@H](c1ccc([N+](=O)[O-])cc1)[C@H]1CSCN1[C@]21C(=O)Nc2ccccc21 | 1.56 (≈ 3.21 µM) | 20.7 | 2 | 4
10 | COc1ccc([C@@H]2[C@H]3CSCN3[C@]3(C(=O)Nc4ccccc43)[C@@]23C(=O)Oc2ccccc23)cc1 | 1.56 (≈ 3.32 µM) | 27.5 | 2 | 4
11 | CN1C[C@@H](c2ccc(Cl)cc2)[C@]2(C(=O)Oc3ccccc32)[C@@]12C(=O)Nc1ccccc12 | 6.25 (≈ 14.5 µM) | 30.1 | – | –
12 | O=C1Oc2ccccc2[C@@]12[C@H](c1ccc(Cl)cc1)[C@H]1CSCN1[C@]21C(=O)Nc2ccc(Br)cc21 | 3.12 (≈ 5.64 µM) | 34.6 | – | –
13 | Cc1ccc([C@@H]2[C@H]3CSCN3[C@]3(C(=O)Nc4ccc(Br)cc43)[C@@]23C(=O)Oc2ccccc23)cc1 | 12.5 (≈ 23.4 µM) | – | – | –
14 | CSc1ccc([C@@H]2[C@H]3CSCN3[C@]3(C(=O)Nc4ccc([N+](=O)[O-])cc43)[C@@]23C(=O)Oc2ccccc23)cc1 | 12.5 (≈ 23.5 µM) | – | – | –
15 | O=C1Oc2ccccc2[C@@]12[C@H](c1ccc(Br)cc1)[C@H]1CSCN1[C@]21C(=O)Nc2ccc(Br)cc21 | 3.12 (≈ 5.22 µM) | 32.4 | – | –
16 | O=C1Oc2ccccc2[C@@]12[C@H](c1ccc(Cl)cc1)[C@H]1CSCN1[C@]21C(=O)Nc2ccccc21 | 3.12 (≈ 6.58 µM) | 32.3 | – | –
17 | COc1ccc([C@@H]2CN(C)[C@]3(C(=O)Nc4ccccc43)[C@@]23C(=O)Oc2ccccc23)cc1 | 12.5 (≈ 29.3 µM) | – | – | –
18 | CN1C[C@@H](c2ccccc2)[C@]2(C(=O)Oc3ccccc32)[C@@]12C(=O)Nc1ccccc12 | 12.5 (≈ 31.5 µM) | – | – | –
19 | CN1C[C@@H](c2ccc([N+](=O)[O-])cc2)[C@]2(C(=O)Oc3ccccc32)[C@@]12C(=O)Nc1ccccc12 | 3.12 (≈ 7.08 µM) | 29.5 | – | –
20 | COc1ccc([C@@H]2[C@H]3CSCN3[C@]3(C(=O)Nc4ccc(Br)cc43)[C@@]23C(=O)Oc2ccccc23)cc1 | 50 (≈ 91 µM) | – | – | –
21 | NC(=O)c1cnccn1 [PYRAZINAMIDE] | 6.25 (≈ 50.8 µM) | – | – | –
22 | COc1ccc([C@@H]2[C@H]3CSCN3[C@]3(C(=O)Nc4ccc([N+](=O)[O-])cc43)[C@@]23C(=O)Oc2ccccc23)cc1 | 25 (≈ 48.5 µM) | – | – | –
23 | O=C1Oc2ccccc2[C@@]12[C@H](c1ccc(Br)cc1)[C@H]1CSCN1[C@]21C(=O)Nc2ccccc21 | 3.12 (≈ 6.02 µM) | 28.5 | – | –
24 | Cc1ccc([C@@H]2[C@H]3CSCN3[C@]3(C(=O)Nc4ccc([N+](=O)[O-])cc43)[C@@]23C(=O)Oc2ccccc23)cc1 | > 25 | – | – | –
25 | O=C(O)c1cn(C2CC2)c2cc(N3CCNCC3)c(F)cc2c1=O [CIPROFLOXACIN] | 3.13 (≈ 9.45 µM) | – | – | –
26 | O=C1Oc2ccccc2[C@@]12[C@H](c1ccccc1)[C@H]1CSCN1[C@]21C(=O)Nc2ccc([N+](=O)[O-])cc21 | 3.12 (≈ 6.44 µM) | 35.2 | – | –
27 | CC[C@@H](CO)NCCN[C@@H](CC)CO [ETHAMBUTOL] | 1.56 (≈ 7.64 µM) | – | – | –
28 | CSc1ccc([C@@H]2CN(C)[C@]3(C(=O)Nc4ccccc43)[C@@]23C(=O)Oc2ccccc23)cc1 | 3.12 (≈ 7.06 µM) | 28.7 | – | –
29 | CSc1ccc([C@@H]2[C@H]3CSCN3[C@]3(C(=O)Nc4ccc(Br)cc43)[C@@]23C(=O)Oc2ccccc23)cc1 | 6.25 (≈ 11.1 µM) | 28.1 | – | –
30 | CSc1ccc([C@@H]2[C@H]3CSCN3[C@]3(C(=O)Nc4ccccc43)[C@@]23C(=O)Oc2ccccc23)cc1 | 12.5 (≈ 25.7 µM) | – | – | –
